Data taken from patent US11931424B2, “Combination MCL-1 inhibitors with anti-body drug conjugates” (Gilead Sciences, Inc., priority 2021, dated 2024).

Test system: panel of breast cancer cell lines
Assay: Compound A with targeted agents and chemotherapies, 72-hour in vitro proliferation assays
Format: cell-based
Settings: compound A × partner, 72-hour proliferation

**Q.** `Cc1c(-c2ccc(N3CCc4cccc(C(=O)Nc5nc6ccccc6s5)c4C3)nc2C(=O)O)cnn1CC12CC3CC(CC(C3)C1)C2` [Compound A-1331852] was tested. Which “Best CI” value (BT-20 cell line) did it give?
**A.** 0.01

**Q.** What about the “Bliss Volume” value (BT-20 cell line) of the same compound?
**A.** 68.96

**Q.** And the HSA volume (BT-20 cell line)?
**A.** 70.29

**Q.** What about the “Loewe Volume” value (BT-20 cell line) of the same compound?
**A.** 70.26

**Q.** And the “Synergy Score” value (BT-20 cell line)?
**A.** 162.62

**Q.** What about the “Best CI” value (CAL-51 cell line) of the same compound?
**A.** 0.01

**Q.** What about the “Bliss Volume” value (CAL-51 cell line) of the same compound?
**A.** 56.43

**Q.** And the HSA volume (CAL-51 cell line)?
**A.** 55.36

**Q.** And the “Loewe Volume” value (CAL-51 cell line)?
**A.** 56.58

**Q.** What about the “Synergy Score” value (CAL-51 cell line) of the same compound?
**A.** 118.96

**Q.** What about the “Best CI” value (CAL-85-1 cell line) of the same compound?
**A.** 0.01

**Q.** What about the “Bliss Volume” value (CAL-85-1 cell line) of the same compound?
**A.** 49.08

**Q.** And the HSA volume (CAL-85-1 cell line)?
**A.** 54.69

**Q.** What about the “Loewe Volume” value (CAL-85-1 cell line) of the same compound?
**A.** 53.39

**Q.** And the “Synergy Score” value (CAL-85-1 cell line)?
**A.** 114.90

**Q.** What about the “Best CI” value (CAL-120 cell line) of the same compound?
**A.** 0.04

**Q.** What about the “Bliss Volume” value (CAL-120 cell line) of the same compound?
**A.** 28.08

**Q.** And the HSA volume (CAL-120 cell line)?
**A.** 26.51

**Q.** What about the “Loewe Volume” value (CAL-120 cell line) of the same compound?
**A.** 28.14

**Q.** What about the “Synergy Score” value (CAL-120 cell line) of the same compound?
**A.** 55.20

**Q.** What about the “Best CI” value (CAL-148 cell line) of the same compound?
**A.** 0.01

**Q.** What about the “Bliss Volume” value (CAL-148 cell line) of the same compound?
**A.** 51.23

**Q.** And the HSA volume (CAL-148 cell line)?
**A.** 55.15

**Q.** And the “Loewe Volume” value (CAL-148 cell line)?
**A.** 56.80

**Q.** And the “Synergy Score” value (CAL-148 cell line)?
**A.** 129.75

**Q.** And the “Best CI” value (CAMA-1 cell line)?
**A.** 0.02

**Q.** And the “Bliss Volume” value (CAMA-1 cell line)?
**A.** 41.48

**Q.** And the HSA volume (CAMA-1 cell line)?
**A.** 38.74

**Q.** What about the “Loewe Volume” value (CAMA-1 cell line) of the same compound?
**A.** 40.35

**Q.** And the “Synergy Score” value (CAMA-1 cell line)?
**A.** 89.71

**Q.** What about the “Best CI” value (DU-4475 cell line) of the same compound?
**A.** 0.41

**Q.** What about the “Bliss Volume” value (DU-4475 cell line) of the same compound?
**A.** 34.50

**Q.** What about the HSA volume (DU-4475 cell line) of the same compound?
**A.** 31.29

**Q.** What about the “Loewe Volume” value (DU-4475 cell line) of the same compound?
**A.** 31.62

**Q.** What about the “Synergy Score” value (DU-4475 cell line) of the same compound?
**A.** 49.81

**Q.** And the “Best CI” value (EVSA-T cell line)?
**A.** 0.11

**Q.** What about the “Bliss Volume” value (EVSA-T cell line) of the same compound?
**A.** 31.72

**Q.** And the HSA volume (EVSA-T cell line)?
**A.** 28.03

**Q.** And the “Loewe Volume” value (EVSA-T cell line)?
**A.** 29.10

**Q.** What about the “Synergy Score” value (EVSA-T cell line) of the same compound?
**A.** 63.11

**Q.** And the “Best CI” value (HCC38)?
**A.** 0.03

**Q.** And the “Bliss Volume” value (HCC38)?
**A.** 36.56

**Q.** And the HSA volume (HCC38)?
**A.** 31.80

**Q.** And the “Loewe Volume” value (HCC38)?
**A.** 30.82

**Q.** What about the “Synergy Score” value (HCC38) of the same compound?
**A.** 60.48

**Q.** And the “Best CI” value (HCC70)?
**A.** 0.00

**Q.** What about the “Bliss Volume” value (HCC70) of the same compound?
**A.** 73.73

**Q.** What about the HSA volume (HCC70) of the same compound?
**A.** 74.12

**Q.** And the “Loewe Volume” value (HCC70)?
**A.** 74.78

**Q.** And the “Synergy Score” value (HCC70)?
**A.** 173.58

**Q.** What about the “Best CI” value (HCC1143 cell line) of the same compound?
**A.** 0.00

**Q.** And the “Bliss Volume” value (HCC1143 cell line)?
**A.** 53.10

**Q.** What about the HSA volume (HCC1143 cell line) of the same compound?
**A.** 51.70

**Q.** What about the “Loewe Volume” value (HCC1143 cell line) of the same compound?
**A.** 52.79

**Q.** And the “Synergy Score” value (HCC1143 cell line)?
**A.** 89.24

**Q.** And the “Best CI” value (HCC1569)?
**A.** 0.01

**Q.** And the “Bliss Volume” value (HCC1569)?
**A.** 43.44

**Q.** What about the HSA volume (HCC1569) of the same compound?
**A.** 40.52

**Q.** What about the “Loewe Volume” value (HCC1569) of the same compound?
**A.** 40.04

**Q.** And the “Synergy Score” value (HCC1569)?
**A.** 86.99

**Q.** And the “Best CI” value (HCC1806)?
**A.** 0.00

**Q.** What about the “Bliss Volume” value (HCC1806) of the same compound?
**A.** 83.58

**Q.** What about the HSA volume (HCC1806) of the same compound?
**A.** 85.67

**Q.** What about the “Loewe Volume” value (HCC1806) of the same compound?
**A.** 85.91

**Q.** And the “Synergy Score” value (HCC1806)?
**A.** 183.39

**Q.** And the “Best CI” value (HCC1937)?
**A.** 0.00

**Q.** And the “Bliss Volume” value (HCC1937)?
**A.** 69.83

**Q.** What about the HSA volume (HCC1937) of the same compound?
**A.** 71.58

**Q.** And the “Loewe Volume” value (HCC1937)?
**A.** 71.06

**Q.** What about the “Synergy Score” value (HCC1937) of the same compound?
**A.** 157.43

**Q.** And the “Best CI” value (HCC1954)?
**A.** 0.01

**Q.** What about the “Bliss Volume” value (HCC1954) of the same compound?
**A.** 53.64

**Q.** And the HSA volume (HCC1954)?
**A.** 55.54

**Q.** And the “Loewe Volume” value (HCC1954)?
**A.** 55.53

**Q.** What about the “Synergy Score” value (HCC1954) of the same compound?
**A.** 121.26

**Q.** What about the “Best CI” value (HCC2218) of the same compound?
**A.** 0.01

**Q.** And the “Bliss Volume” value (HCC2218)?
**A.** 47.29

**Q.** What about the HSA volume (HCC2218) of the same compound?
**A.** 47.84

**Q.** And the “Loewe Volume” value (HCC2218)?
**A.** 46.72

**Q.** What about the “Synergy Score” value (HCC2218) of the same compound?
**A.** 99.88

**Q.** And the “Best CI” value (HDQ-P1)?
**A.** 0.01

**Q.** And the “Bliss Volume” value (HDQ-P1)?
**A.** 58.35

**Q.** What about the HSA volume (HDQ-P1) of the same compound?
**A.** 61.13

**Q.** What about the “Loewe Volume” value (HDQ-P1) of the same compound?
**A.** 60.82

**Q.** And the “Synergy Score” value (HDQ-P1)?
**A.** 132.76

**Q.** What about the “Best CI” value (HMC-1-8) of the same compound?
**A.** 0.11

**Q.** And the “Bliss Volume” value (HMC-1-8)?
**A.** 21.81

**Q.** And the HSA volume (HMC-1-8)?
**A.** 19.39

**Q.** What about the “Loewe Volume” value (HMC-1-8) of the same compound?
**A.** 20.77

**Q.** And the “Synergy Score” value (HMC-1-8)?
**A.** 39.01

**Q.** And the “Best CI” value (JIMT-1)?
**A.** 0.01

**Q.** What about the “Bliss Volume” value (JIMT-1) of the same compound?
**A.** 57.07

**Q.** And the HSA volume (JIMT-1)?
**A.** 57.74

**Q.** And the “Loewe Volume” value (JIMT-1)?
**A.** 57.21

**Q.** And the “Synergy Score” value (JIMT-1)?
**A.** 126.70

**Q.** And the “Best CI” value (KPL-1)?
**A.** 0.03

**Q.** And the “Bliss Volume” value (KPL-1)?
**A.** 26.84

**Q.** What about the HSA volume (KPL-1) of the same compound?
**A.** 25.88

**Q.** What about the “Loewe Volume” value (KPL-1) of the same compound?
**A.** 26.65

**Q.** What about the “Synergy Score” value (KPL-1) of the same compound?
**A.** 36.44
